Patent publication US9732094B2, “Arylquinazolines” (Merck Patent GmbH, priority 2013, dated 2017)
Where two headings read alike, the source gives them in different places.

Tests used:
Kv11.1 (hERG) = Kv11.1 (hERG) (Homo sapiens (Human), UniProt Q12809); assay: Kv11.1 (hERG) ion channel activity (patch clamp assay), HEK293 cells transfected with hERG gene; conditions: hERG patch clamp assay (cells without asterisk)
Method: C) Kv11.1 (hERG) Ion Channel Activity (Patch Clamp Assay)
The patch-clamp measurement was carried out at room temperature in whole-cell configuration on human embryonic kidney cells (HEK293) which have been transfected in a stable manner with the hERG gene.
The whole-cell configurations were carried out using an automated patch clamp device (Patchliner™, Nanion Technologies, Munich). […] The glass chip has a hole of defined size to which the cell is transferred into the Gigaseal by application of a reduced pressure and brought into the whole-cell configuration. Buffer, cell suspension and test substances were added to microchannels of the chip using a Teflon-coated pipette. The cells were clamped to a holding potential of −80 mV. For measurement of substance-promoted inhibition of the Kv11.1 channel, the following voltage protocol was applied at 10-second intervals: 51 ms/−80 mV, 500 ms/+40 mV, 500 ms/−40 mV, 200 ms/−80 mV. The leakage current is subtracted by means of the P4 method. The cells were resuspended in extracellular buffer (EC) and applied to the chip. After the cell had been collected, the seal was improved by addition of a seal enhancer buffer. As soon as the whole-cell configuration had been reached, the seal enhancer buffer was washed out and replaced by extracellular buffer. The measurement started in EC for 1.5 min. DMSO (vehicle control, 0.1% of DMSO) was then applied, and the control current was recorded for 3 min. The test substance was subsequently added twice in the same concentration, and the potassium current was measured for 3.5 min in each case.
The reference substance used was the Kv11.1 (hERG) ion channel blocker quinidine. The effects of test substances and quinidine were standardised to the associated vehicle control. The effect on the Kv11.1 (hERG) channel activity was assessed from the potassium current at −40 mV. For the calculation, the current was evaluated for the respective final trace.
During the measurement, an aliquot of the test substance was taken for concentration determination. The sample was measured immediately by HPLC, and the final concentration was determined from a calibration curve.

DNA-PK = DNA-PK (Homo sapiens (Human), UniProt P78527); assay: DNA-PK assay (biochemical), flashplate 33P-ATP kinase assay; conditions: biochemical DNA-PK assay
Method in brief: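 Reactions ran in streptavidin-coated flashplates and were halted by 200 mM EDTA, with a further 30 min at room temperature before saline washing.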

[1] = molecular target: DNA-PK phosphorylation at serine 2056 (Homo sapiens (Human), UniProt P78527); assay: DNA-PK phosphorylation at serine 2056 (cellular), bleomycin-treated HCT116 cells, ELISA; format: cell-based; conditions: cellular DNA-PK phosphorylation at serine 2056, HCT116; read-out: IC50 pDNA-PK
Method in brief: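 Chemiluminescent ELISA quantified DNA-PK Ser2056 phosphorylation relative to total DNA-PKcs in HCT116 cells. Cells received compounds together with 10 μM bleomycin for 6 h; DMSO served as blank.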

Sequence of Kv11.1 (hERG) (Q12809 whole entry): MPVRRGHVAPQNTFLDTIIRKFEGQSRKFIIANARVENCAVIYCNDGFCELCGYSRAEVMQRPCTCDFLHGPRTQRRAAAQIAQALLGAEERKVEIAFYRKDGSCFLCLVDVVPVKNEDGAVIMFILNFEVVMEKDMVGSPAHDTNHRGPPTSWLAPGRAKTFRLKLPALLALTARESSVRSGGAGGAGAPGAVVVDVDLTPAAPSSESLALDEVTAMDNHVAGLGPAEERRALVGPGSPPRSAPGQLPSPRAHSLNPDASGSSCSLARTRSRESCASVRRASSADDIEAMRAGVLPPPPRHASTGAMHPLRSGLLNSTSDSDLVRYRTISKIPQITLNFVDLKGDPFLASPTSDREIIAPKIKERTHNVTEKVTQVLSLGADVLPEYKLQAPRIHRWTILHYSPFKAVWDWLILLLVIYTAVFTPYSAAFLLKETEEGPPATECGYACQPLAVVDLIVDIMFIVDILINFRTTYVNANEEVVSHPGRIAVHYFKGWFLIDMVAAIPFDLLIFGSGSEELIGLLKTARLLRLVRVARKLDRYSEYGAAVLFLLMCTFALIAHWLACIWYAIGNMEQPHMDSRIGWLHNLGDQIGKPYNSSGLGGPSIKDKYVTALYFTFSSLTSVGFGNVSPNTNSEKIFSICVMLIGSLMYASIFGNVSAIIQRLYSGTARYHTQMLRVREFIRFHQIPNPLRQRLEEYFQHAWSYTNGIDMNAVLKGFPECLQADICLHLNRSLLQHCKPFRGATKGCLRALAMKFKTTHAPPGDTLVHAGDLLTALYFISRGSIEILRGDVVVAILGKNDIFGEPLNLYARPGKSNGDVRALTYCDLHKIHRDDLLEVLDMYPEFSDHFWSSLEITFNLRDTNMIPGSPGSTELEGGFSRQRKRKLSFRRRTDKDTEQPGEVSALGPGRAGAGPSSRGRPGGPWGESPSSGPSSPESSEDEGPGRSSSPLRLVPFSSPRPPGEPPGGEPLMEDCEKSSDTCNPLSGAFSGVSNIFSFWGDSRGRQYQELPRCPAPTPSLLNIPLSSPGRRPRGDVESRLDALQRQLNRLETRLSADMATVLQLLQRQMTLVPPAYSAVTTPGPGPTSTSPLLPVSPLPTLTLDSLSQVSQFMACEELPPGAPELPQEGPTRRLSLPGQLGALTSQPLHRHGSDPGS

| IC50 (DNA-PK) | IC50 [1] | SMILES | Ki (Kv11.1 (hERG); read-out: Ki [Kv1.11 hERG]) | Ki (Kv11.1 (hERG); Ki [Kv1.11 hERG]) |
| --- | --- | --- | --- | --- |
| 7 to 30 nM | 10000 to 30000 nM | Cn1cnc2ncnc([C@H](O)c3cc(-c4ncnc5cc(N6CCOCC6)ccc45)c(F)cc3F)c21 [Example 384, (R)-[2,4-Difluoro-5-(7-morpholin-4-yl-quinazolin-4-yl)-phenyl]-(7-methyl-7H-purin-6-yl)-methanol] | > 25 µM | – |
| 7 to 30 nM | 500 to 5000 nM | OC(c1ccc(F)c(-c2ncnc3cc(N4CCOCC4)ccc23)c1)c1ncnc2c1CCNC2 (stereo not drawn) [Example 388, [4-Fluoro-3-(7-morpholin-4-yl-quinazolin-4-yl)-phenyl]-(5,6,7,8-tetrahydropyrido-[3,4-d}pyrimidin-4-yl)-methanol] | – | 10 to 15 µM |
| 7 to 30 nM | 5000 to 10000 nM | OC(c1cc(-c2ncnc3cc(N4CCOCC4)ccc23)ccc1Cl)c1ncncc1F (stereo not drawn) [Example 389, [2-Chloro-5-(7-morpholin-4-yl-quinazolin-4-yl)-phenyl]-(5-fluoro-pyrimidin-4-yl)-methanol] | – | 10 to 15 µM |
| 3 to 7 nM | 500 to 5000 nM | OC(c1cc(-c2ncnc3cc(N4CCOCC4)ccc23)ccc1Cl)c1ncncc1F (stereo not drawn) [Example 390, [2-Chloro-5-(7-morpholin-4-yl-quinazolin-4-yl)-phenyl]-(5-fluoro-pyrimidin-4-yl)-methanol] | – | 15 to 25 µM |
| 7 to 30 nM | 500 to 5000 nM | Cn1ncc2c(C(O)c3cc(-c4ncnc5cc(N6CCOCC6)ccc45)ccc3F)ncnc21 (stereo not drawn) [Example 391, [2-Fluoro-5-(7-morpholin-4-yl-quinazolin-4-yl)-phenyl]-(1-methyl-1H-pyrazolo[3,4-d}-pyrimidin-4-yl)-methanol] | – | 15 to 25 µM |
| 3 to 7 nM | 500 to 5000 nM | Cc1cncnc1C(O)c1cc(-c2ncnc3cc(N4CCOCC4)ccc23)ccc1F (stereo not drawn) [Example 392, [2-Fluoro-5-(7-morpholin-4-yl-quinazolin-4-yl)-phenyl]-(5-methyl-pyrimidin-4-yl)-methanol] | – | 15 to 25 µM |
| 3 to 7 nM | 5000 to 10000 nM | Cc1nccnc1C(O)c1cc(-c2ncnc3cc(N4CCOCC4)ccc23)ccc1F (stereo not drawn) [Example 393, [2-Fluoro-5-(7-morpholin-4-yl-quinazolin-4-yl)-phenyl]-(3-methyl-pyrazin-2-yl)-methanol] | – | 15 to 25 µM |
| 3 to 7 nM | 500 to 5000 nM | COc1nccnc1C(O)c1cc(-c2ncnc3cc(N4CCOCC4)ccc23)ccc1F (stereo not drawn) [Example 394, [2-Fluoro-5-(7-morpholin-4-yl-quinazolin-4-yl)-phenyl]-(3-methoxy-pyrazin-2-yl)-methanol] | < 10 µM | – |
| 3 to 7 nM | < 500 nM | OC(c1cc(-c2ncnc3cc(N4CCOCC4)ccc23)c(F)cc1Cl)c1nccn2ccnc12 (stereo not drawn) [Example 397, [2-Chloro-4-fluoro-5-(7-morpholin-4-yl-quinazolin-4-yl)-phenyl]imidazo-[1,2-a]pyrazin-8-yl-methanol] | > 25 µM | – |
| 3 to 7 nM | 500 to 5000 nM | CCn1c(C(O)c2ccc(F)c(-c3ncnc4cc(N5CCOCC5)ccc34)c2)cccc1=O (stereo not drawn) [Example 398, 1-Ethyl-6-{[4-f1uoro-3-(7-morpholin-4-yl-quinazolin-4-yl)-phenyl]hydroxy-methyl}-1H-pyridin-2-one] | > 25 µM | – |
| < 3 nM | 500 to 5000 nM | OC(c1ccc(F)c(-c2ncnc3cc(N4CCOCC4)ccc23)c1)c1nnc2ccccn12 (stereo not drawn) [Example 399, [4-Fluoro-3-(7-morpholin-4-yl-quinazolin-4-yl)-phenyl]-[1,2,4]-triazolo[4,3-a]pyridin-3-ylmethanol] | > 25 µM | – |
| < 3 nM | < 500 nM | Cn1c(C(O)c2cc(-c3ncnc4cc(N5CCOCC5)ccc34)ccc2Cl)cccc1=O (stereo not drawn) [Example 400, 6-{[2-Chloro-5-(7-morpholin-4-yl-quinazolin-4-yl)-phenyl]hydroxy-methyl}-1-methyl-1H-pyridin-2-one] | – | 15 to 25 µM |
| 3 to 7 nM | 500 to 5000 nM | Cn1c(C(O)c2cc(-c3ncnc4cc(N5CCOCC5)ccc34)ccc2F)cccc1=O (stereo not drawn) [Example 401, 6-{[2-Fluoro-5-(7-morpholin-4-yl-quinazolin-4-yl)-phenyl]hydroxy-methyl}-1-methyl-1H-pyridin-2-one] | – | 10 to 15 µM |
| 3 to 7 nM | 500 to 5000 nM | Cn1ncc2c(C(O)c3cc(-c4ncnc5cc(N6CCOCC6)ccc45)c(F)cc3Cl)ncnc21 (stereo not drawn) [Example 402, [2-Chloro-4-fluoro-5-(7-morpholin-4-yl-quinazolin-4-yl)-phenyl]-(1-methyl-1H-pyrazolo[3,4-d}-pyrimidin-4-yl)-methanol] | – | 15 to 25 µM |
| 3 to 7 nM | 500 to 5000 nM | Cn1ncc2c(C(O)c3cc(-c4ncnc5cc(N6CCOCC6)ccc45)c(F)cc3F)ncnc21 (stereo not drawn) [Example 403, [2,4-Difluoro-5-(7-morpholin-4-yl-quinazolin-4-yl)-phenyl]-(1-methyl-1H-pyrazolo[3,4-d}-pyrimidin-4-yl)-methanol] | – | 15 to 25 µM |
| 3 to 7 nM | < 500 nM | Cn1ncc2c(C(O)c3ccc(F)c(-c4ncnc5cc(N6CCOCC6)ccc45)c3)ncnc21 (stereo not drawn) [Example 404, [4-Fluoro-3-(7-morpholin-4-yl-quinazolin-4-yl)-phenyl]-(1-methyl-1H-pyrazolo[3,4-d}-pyrimidin-4-yl)-methanol] | > 25 µM | – |
| < 3 nM | < 500 nM | OC(c1cc(-c2ncnc3cc(N4CCOCC4)ccc23)ccc1F)c1ncnc2ccsc12 (stereo not drawn) [Example 405, [2-Fluoro-5-(7-morpholin-4-yl-quinazolin-4-yl)-phenyl]thieno[3,2-d}-pyrimidin-4-yl-methanol] | < 10 µM | – |
| < 3 nM | < 500 nM | OC(c1cc(-c2ncnc3cc(N4CCOCC4)ccc23)ccc1F)c1ncnc2sccc12 (stereo not drawn) [Example 406, [2-Fluoro-5-(7-morpholin-4-yl-quinazolin-4-yl)-phenyl]thieno[2,3-d}-pyrimidin-4-yl-methanol] | – | 10 to 15 µM |
| < 3 nM | 500 to 5000 nM | Cc1cncnc1C(C(N)=O)c1cc(-c2ncnc3cc(N4CCOCC4)ccc23)ccc1Cl (stereo not drawn) [Example 407, 2-[2-Chloro-5-(7-morpholin-4-yl-quinazolin-4-yl)-phenyl]-2-(5-methyl-pyrimidin-4-yl)-acetamide] | 15 to 25 µM | – |
| 3 to 7 nM | 500 to 5000 nM | COc1cncnc1C(O)c1cc(-c2ncnc3cc(N4CCOCC4)ccc23)ccc1Cl (stereo not drawn) [Example 408, [2-Chloro-5-(7-morpholin-4-yl-quinazolin-4-yl)-phenyl]-(5-methoxy-pyrimidin-4-yl)-methanol] | – | 10 to 15 µM |
| 3 to 7 nM | 500 to 5000 nM | COc1cncnc1C(O)c1cc(-c2ncnc3cc(N4CCOCC4)ccc23)ccc1Cl (stereo not drawn) [Example 409, [2-Chloro-5-(7-morpholin-4-yl-quinazolin-4-yl)-phenyl]-(5-methoxy-pyrimidin-4-yl)-methanol] | > 25 µM | – |
| 7 to 30 nM | 5000 to 10000 nM | OC(c1cc(-c2ncnc3cc(N4CCOCC4)ccc23)ccc1Cl)c1ncncc1F (stereo not drawn) [Example 412, [2-Chloro-5-(7-morpholin-4-yl-quinazolin-4-yl)-phenyl]-(5-fluoro-pyrimidin-4-yl)-methanol] | – | 15 to 25 µM |
| 3 to 7 nM | 500 to 5000 nM | COc1cncnc1C(O)c1cc(-c2ncnc3cc(N4CCOCC4)ccc23)ccc1Cl (stereo not drawn) [Example 413, [2-Chloro-5-(7-morpholin-4-yl-quinazolin-4-yl}-phenyl]-(5-methoxy-pyrimidin-4-yl)-methanol] | – | 15 to 25 µM |
| 7 to 30 nM | < 500 nM | OC(c1cc(-c2ncnc3cc(N4CCOCC4)ccc23)ccc1Cl)c1ncnc2ccoc12 (stereo not drawn) [Example 414, [2-Chloro-5-(7-morpholin-4-yl-quinazolin-4-yl)-phenyl]furo[3,2-d}-pyrimidin-4-yl-methanol] | – | 10 to 15 µM |
| 3 to 7 nM | < 500 nM | OC(c1cc(-c2ncnc3cc(N4CCOCC4)ccc23)ccc1Cl)c1ncnc2ccoc12 (stereo not drawn) [Example 415, [2-Chloro-5-(7-morpholin-4-yl-quinazolin-4-yl)-phenyl]furo[3,2-d}-pyrimidin-4-yl-methanol] | 10 to 15 µM | – |

| SMILES | IC50 (DNA-PK) | IC50 [1] | Ki (Kv11.1 (hERG); read-out: Ki [Kv1.11 hERG]) | Ki (Kv11.1 (hERG); Ki [Kv1.11 hERG]) |
| --- | --- | --- | --- | --- |
| Cn1ncc2c(C(O)c3cc(-c4ncnc5cc(N6CCOCC6)ccc45)ccc3Cl)ncnc21 (stereo not drawn) [Example 385, [2-Chloro-5-(7-morpholin-4-yl-quinazolin-4-yl)-phenyl]-(1-methyl-1H-pyrazolo[3,4-d}-pyrimidin-4-yl)-methanol] | 7 to 30 nM | 500 to 5000 nM | > 25 µM | – |
| OC(c1cc(-c2ncnc3cc(N4CCOCC4)ccc23)c(F)cc1F)c1ncnc2c1CCNC2 (stereo not drawn) [Example 387, [2,4-Difluoro-5-(7-morpholin-4-yl-quinazolin-4-yl)-phenyl]-(5,6,7,8-tetrahydropyrido-[3,4-d}pyrimidin-4-yl)-methanol] | 7 to 30 nM | 500 to 5000 nM | – | 15 to 25 µM |
| COc1nccnc1C(O)c1cc(-c2ncnc3cc(N4CCOCC4)ccc23)ccc1Cl (stereo not drawn) [Example 410, [2-Chloro-5-(7-morpholin-4-yl-quinazolin-4-yl)-phenyl]-(3-methoxy-pyrazin-2-yl)-methanol] | < 3 nM | < 500 nM | < 10 µM | – |
| COc1nccnc1[C@@H](O)c1cc(-c2ncnc3cc(N4CCOCC4)ccc23)ccc1Cl [Example 411, (S)-[2-Chloro-5-(7-morpholin-4-yl-quinazolin-4-yl)-phenyl]-(3-methoxy-pyrazin-2-yl)-methanol] | 3 to 7 nM | 500 to 5000 nM | – | 10 to 15 µM |
